From patent US7004171B2, “System for transvaginal drug delivery” (Hi-Gienic Intra Vaginal Technologies Ltd., priority 2002, dated 2006)

Settings: Sorensen buffer pH 7.4, 37° C., 24 hours agitation, excess drug
Excerpt: The release medium used for these experiments was the Sorensen-Walbum buffer, chosen here due to its lack of absorbance in the UV range, thus causing less interference with the analytical drug detection process. The buffer consisted of glycine (0.1 M) and NaCl (0.1 M), adjusted to pH 7.4 with NaOH (0.1M).

saturation concentration: 100 µg/mL
SMILES: CC(C)Cc1ccc(C(C)C(=O)O)cc1 (stereo not shown) [Ibuprofen]
